What was measured:
IL-1β = IL-1β levels in tumor supernatants of WT and Tim3cko animals with or without NAC; assay type: in vivo, mice; settings: Tim3cko tumors; NAC in drinking water 40 mM
Source text: (§1) To investigate the effect of oxidative stress in Tim3^cko tumor bearing animals the inventors implanted Tim3^fl.fl and Tim3^fl.flZbtb46 cre mice with MC38-OVAdim and treated with or without antioxidant N-Acetyl-Cysteine (NAC) for the duration of the experiment. […] To determine whether mitigation of oxidative stress in Tim3^cko tumors also affected IL-1β levels intratumorally, the inventors prepared tumor supernatants and determined the levels of IL-1β in WT and Tim3cko animals treated with or without NAC.
(§2) The C57BL/6-derived colon carcinoma MC38 and MC38-OVAdim were maintained at 37° C. with 5% CO2 in DMEM medium supplemented with 10% heat-inactivated fetal calf serum, penicillin, and streptomycin and 1% Sodium Pyruvate. The C57BL/6-derived melanoma cell lines-B16 and B16-OVA-transfected clone were maintained at 37° C. with 5% CO2 in RPMI medium supplemented with 10% heat-inactivated fetal calf serum, penicillin, and streptomycin. MC38- OVA^dim (0.5×10^6), B16F10/B16-OVA (0.25×10^6) and MC38 (1.0×10^6) cells were injected subcutaneously in 100 μl PBS on the flank. Tumor size was determined by the formula L×W where L=length, W=width on the indicated days. In some experiments, mice were treated with anti-IL-1β (B122) and anti-IL-18 (YIGIF74-1 G7) or appropriate control Hamster Ig and Rat IgG2a (all at 8 mg/kg) i.p. on days 3, 6, 9 post tumor implantation. […]

MC38-OVAdim tumor = MC38-OVAdim tumor growth and weight in Tim3fl.fl and Tim3fl.flZbtb46 cre mice with or without NAC; assay type: in vivo; settings: Tim3cko mice, NAC daily in drinking water 40 mM
Source text: as §1, §2

MC38-OVA tumor = MC38-OVA tumor growth and weight in Tim3fl.fl and Tim3fl.flxCD11c cre mice under inflammasome pathway inhibition; assay type: in vivo; settings: Tim-3cko mice, 8 mg/kg
Source text: FIGS. 4A-4W: Loss of Tim3 on DC promotes inflammasome activation. (FIG. 4A) Unidirectional analysis of the fraction of DCs expressing ligand X and the fraction of T cells expressing the cognate Receptor; Ligand (MigDC): Receptor (CD8) interaction from WT (left) and Tim3cko (right) tumors. (FIG. 4B) Bar plot of data from FIG. 4A. (FIG. 4C). ECDF plots showing enrichment of IL-18 signature and (FIG. 4D) IL-1 signature in WT and Tim3^ckoCD8+ TILs. (FIG. 4E) ECDF plot of enrichment score for inflammasome signature in WT or Tim3^cko migratory DC, (p=1.5*10^−03), (FIG. 4F) Dot plot of selected genes from inflammasome signature. (FIG. 4G) ECDF plot of enrichment score for Oxidative Stress signature, (FIG. 4H) Dot plot of selected genes from Oxidative Stress signature. (FIG. 4I) MC38-OVA (0.5×10^6 cells) were subcutaneously implanted into Tim3^fl.fl and Tim3^fl.flxCD11c cre mice and on D14 tumors mononuclear cells were isolated and incubated with DHR123 for 30 minutes followed by flow-cytometric analysis of activated DHR123 as a measure of ROS activity in tumor infiltrating DC. […]
The C57BL/6-derived colon carcinoma MC38 and MC38-OVAdim were maintained at 37° C. with 5% CO2 in DMEM medium supplemented with 10% heat-inactivated fetal calf serum, penicillin, and streptomycin and 1% Sodium Pyruvate. […] Tumor size was determined by the formula L×W where L=length, W=width on the indicated days. […]

`CC(=O)N[C@@H](CS)C(=O)O` [NAC, N-Acetyl-Cysteine] was tested, and the “elevated intratumoral IL-1β levels (tumor supernatants)” value (IL-1β) was “completely reversed”, the “protective inhibition of tumor growth (tumor growth)” value (MC38-OVAdim tumor) was “completely abrogated” and the “protective inhibition of tumor growth (tumor weights post-harvest)” value (MC38-OVAdim tumor) was “completely abrogated”.
`CC(C)(O)c1coc(S(=O)(=O)[N-]C(=O)Nc2c3c(cc4c2CCC4)CCC3)c1.[Na+]` [CRID3] was tested, and the “protective anti-tumor immunity observed in the Tim-3cko” value (MC38-OVA tumor) was “abolished the protective anti-tumor immunity”.

Reference: patent publication US20240262909A1, “TIM-3 MODULATES ANTI-TUMOR IMMUNITY BY REGULATING INFLAMMASOME ACTIVATION” (THE BRIGHAM AND WOMEN'S HOSPITAL, INC., priority 2021, published 2024)
